Measurements reported in patent publication US20100028334A1, “COMPOSITIONS AND METHODS TO POTENTIATE COLISTIN ACTIVITY” (TRUSTEES OF BOSTON UNIVERSITY, priority 2006, published 2010).

Assays:
[1] = molecular target: Escherichia coli H+-ATP synthase (Escherichia coli, UniProt P0AB98+P68699); conditions: cited from earlier work
[2] = test system: ubiH and iscS mutant E. coli cells; assay: colony formation unit (CFU) assay, deletion mutants; type: cell-based; conditions: colistin 1.25 ug/ml, FIG. 5A
Description: (§1) The cells were incubated with colistin at a final concentration of 1.25 ug/ml. […] 10 ul of cells were plated onto LB agar [no colistin] plates. Number of colonies were counted after overnight incubation at 37 C. Colony count was normalized to get the same starting amount of cells for all strains. […] Log change in colony forming units per ml (CFU/ml) of wild-type, BW25113 E. coli cells (mean±s.d.) in presence or absence of colistin and potassium tellurite. Cell were grown in the absence or presence of colistin (1.25 ug/ml), potassium tellurite (1.6 ug/ml) alone and combined. […] Number of colonies were counted after overnight incubation at 37 C. Colony count was normalized to get the same starting amount of cells for all strains.
For CFU measurements, 50 μl of stationary phase culture was inoculated into 5 ml of LB. 240 or 245 μl of the freshly diluted cells were placed into wells of a 96 well plate (Costar), 5 μl of colistin and or potassium tellurite were added into each well to obtain a final volume of 250 μl. […] Dilutions that yielded between 20 and 100 colonies were counted and CFU were normalized to reflect the same amount of cells for the starting cultures.
The cells were grown with or without colistin, aliquots were taken at defined time points and serial dilution of the cells plated, colony count allowed to quantify the bactericidal effect of colistin. […]

[3] = test system: wild-type, BW25113 E. coli cells; assay: colony formation unit (CFU) assay, parent strain; type: cell-based
Description: as §1
For CFU measurements, 50 μl of stationary phase culture was inoculated into 5 ml of LB. 240 or 245 μl of the freshly diluted cells were placed into wells of a 96 well plate (Costar), 5 μl of colistin and or potassium tellurite were added into each well to obtain a final volume of 250 μl. The 96 well plates were then incubated at 37° C. At the 0, 3 and 6 hours time points, 20 μl of culture was collected and then serially diluted in 180 μl of 1×PBS, pH 7.2 (Fisher). A 10 μl portion of each dilution was plated onto LB agar (Fisher)), and the plate was incubated overnight at 37° C. Dilutions that yielded between 20 and 100 colonies were counted and CFU were normalized to reflect the same amount of cells for the starting cultures.
The cells were grown with or without colistin, aliquots were taken at defined time points and serial dilution of the cells plated, colony count allowed to quantify the bactericidal effect of colistin. We noticed that the iscS and ubiH mutants were slow growers and formed small size colonies compared to the parent strain.

[4] = test system: E. coli; assay: minimum inhibitory concentration (MIC) assay of colistin with mefloquine; type: cell-based
Description: The efficacy of colistin in inhibiting the growth and/or suppressing survival of E. coli in the presence of one inhibitor, mefloquine was assessed in a minimum inhibitory concentration (MIC) assay.

[5] = cited from earlier work
[6] = test system: gram-positive bacteria; type: cell-based; conditions: used concurrently with colistin; data not shown
[7] = test system: iscS mutant; conditions: Rojas and Vasquez, 2005; cited from earlier work
[8] = after intravenous administration of colistimethate (sodium); cited from earlier work
[9] = test system: P aeruginosa; conditions: recent studies; cited from earlier work

## CC[C@H]1/C=C/C=C/C[C@@H](C)[C@H](O)[C@@](C)(O)C(=O)[C@@H](C)[C@H](O)[C@@H](C)C(=O)[C@@H](C)[C@H](O)[C@@H](C)/C=C/C(=O)O[C@@H]2[C@H](C)[C@H](CC1)O[C@]1(CC[C@H](C)[C@H](C[C@@H](C)O)O1)[C@H]2C [oligomycin]
[1]
  inhibition of ATP-driven proton transport and ATP hydrolysis: weakly inhibited

## colistin
[2]; 5 hour time point
  colony detection: almost no colony detection
[2]
  viability of mutants when exposed to colistin: significant decrease in viability
[3]; colistin 1.25 ug/ml, 3 and 5 hour time points, FIG. 5A
  viability of parent strain compared to non treated cells: no significant decrease in viability
[3]; colistin 1.25 ug/ml, 3 hour time point, FIG. 5B
  viability (CFU) compared to non treated cells: no significant decrease in viability
[3]; colistin 1.25 ug/ml, 5 hour time point, FIG. 5B
  viability (CFU): decrease in viability
[4]; in the absence of mefloquine
  MIC of colistin: 6.3 µg/mL
[4]; in the presence of 50 μg/ml of mefloquine
  MIC of colistin required to suppress growth: 6.3 µg/mL
[4]; in the presence of 100 μg/ml of mefloquine
  MIC of colistin required to suppress growth: 3.1 µg/mL
[4]; in the presence of 200 μg/ml of mefloquine
  MIC of colistin required to suppress growth: 0.8 µg/mL
[5]
  stability in human plasma: more stable than colistimethate

## OC(c1cc(C(F)(F)F)nc2c(C(F)(F)F)cccc12)C1CCCCN1 (stereo not shown) [mefloquine]
[4]; mefloquine at concentrations above 50 μg/ml or greater
  potentiation of colistin efficacy by mefloquine: dose-dependent potentiation of colistin efficacy
[6]
  potentiation of colistin against gram-positive bacteria: potentiates colistin ability to decrease gram-positive bacteria

## O=[Te]([O-])[O-].[K+].[K+] [potassium tellurite]
[3]; potassium tellurite 1.6 ug/ml, 3 hour time point
  effect on CFU: not or little affecting the CFU
[3]; potassium tellurite 1.6 ug/ml, 6 hours
  growth inhibition: stronger growth inhibition
[7]
  sensitivity of iscS mutant: sensitive

## venturicidin
[1]
  inhibition of ATP-driven proton transport and ATP hydrolysis: strongly inhibited

## colistimethate
[8]
  plasma half-lives relative to those of the colistin generated: approximately half
[9]
  antibacterial activity: non-active prodrug of colistin
